Measurements taken from patent US8771665B2 (Cocrystal Discovery, Inc., priority 2010, dated 2014).
pIC50: −log10 of the molar value.

Target: T1, HCV1b NS5B polymerase delta 21 (Hepatitis C virus genotype 1b, UniProt P26663)
T1 construct: purified HCV1b NS5B polymerase delta 21
Experiment: RNA-Dependent RNA HCV NS5B (Polymerase) Assay and IC50 Determination
Type: biochemical
Method: RNA-Dependent RNA HCV NS5B (Polymerase) Assay and IC50 Determination
In vitro RNA-dependent RNA polymerase activity was determined in a reaction mixture (50 μL) containing 50 mM Tris-HCl, pH 7.5, 5 mM MgCl2, 1 mM dithiothreitol, 0.5% Triton® X-100, 10 μM of UTP, 0.1-0.5 μCi of α-^32P UTP (Perkin Elmer Life Sciences), 1 μg of polyA:U16 (Midland Oligo), and 0.6 μg of purified HCV1b NS5B polymerase delta 21. Different concentrations of compounds were added to the reaction mixtures. The reaction was carried out at RT (23° C.) for 60 min and then stopped by the addition of 100 μL of 50 mM EDTA. The reaction mixtures were filtered through either a DE81 membrane or a positively charged nylon membrane, and the membranes were then extensively washed with 30 mM sodium citrate, pH 7.0 and 300 mM NaCl. The radiolabeled RNA products were quantitated using a Storm™ Phosphorlmager™ (GE Life Sciences). IC50 values were calculated using GraFit 6 and GraphPad Prism 5 from triplicate assays.

T1 sequence (P26663 2420-2989): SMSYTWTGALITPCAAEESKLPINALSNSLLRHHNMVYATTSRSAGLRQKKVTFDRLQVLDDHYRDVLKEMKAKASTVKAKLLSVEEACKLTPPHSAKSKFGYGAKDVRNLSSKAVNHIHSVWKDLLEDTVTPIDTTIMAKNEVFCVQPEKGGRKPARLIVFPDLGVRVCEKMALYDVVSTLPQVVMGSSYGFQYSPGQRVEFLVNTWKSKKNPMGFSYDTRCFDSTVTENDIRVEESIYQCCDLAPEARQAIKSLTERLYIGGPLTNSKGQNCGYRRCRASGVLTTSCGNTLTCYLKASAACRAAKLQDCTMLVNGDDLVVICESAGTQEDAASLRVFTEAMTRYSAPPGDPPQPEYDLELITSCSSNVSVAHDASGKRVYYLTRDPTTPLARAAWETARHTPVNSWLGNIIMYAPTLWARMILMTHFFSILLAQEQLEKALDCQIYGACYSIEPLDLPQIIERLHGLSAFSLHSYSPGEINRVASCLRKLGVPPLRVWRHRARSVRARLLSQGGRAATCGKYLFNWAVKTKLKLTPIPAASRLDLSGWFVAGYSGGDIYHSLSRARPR

SMILES	pIC50
CCN1CCC(c2cc(-c3ccc(NC(=O)c4cncs4)cc3)sc2C(=O)O)=C(C2CCC(C)CC2)C1 (stereo not shown) [Example 050, 3-[1-Ethyl-5-(4-methyl-cyclohexyl)-1,2,3,6-tetrahydro-pyridin-4-yl]-5-{4-[(thiazole-5-carbonyl)-amino]-phenyl}-thiophene-2-carboxylic acid]	5.00 to 5.52
CCN1CCC(c2cc(-c3ccc(NC(=O)c4cc(C)n(C)n4)cc3)sc2C(=O)O)=C(C2CCC(C)CC2)C1 (stereo not shown) [Example 051, 5-{4-[(1,5-Dimethyl-1H-pyrazole-3-carbonyl)-amino]-phenyl}-3-[1-ethyl-5-(4-methyl-cyclohexyl)-1,2,3,6-tetrahydro-pyridin-4-yl]-thiophene-2-carboxylic acid]	> 5.52
CCN1CCC(c2cc(-c3ccc(NC(=O)c4cocn4)cc3)sc2C(=O)O)=C(C2CCC(C)CC2)C1 (stereo not shown) [Example 052, 3-[1-Ethyl-5-(4-methyl-cyclohexyl)-1,2,3,6-tetrahydro-pyridin-4-yl]-5-{4-[(oxazole-4-carbonyl)-amino]-phenyl}-thiophene-2-carboxylic acid]	> 5.52
CCN1CCC(c2cc(-c3ccc(NC(=O)c4cc(C)on4)cc3)sc2C(=O)O)=C(C2CCC(C)CC2)C1 (stereo not shown) [Example 053, 3-[1-Ethyl-5-(4-methyl-cyclohexyl)-1,2,3,6-tetrahydro-pyridin-4-yl]-5-{4-[(5-methyl-isoxazole-3-carbonyl)-amino]-phenyl}-thiophene-2-carboxylic acid]	5.00 to 5.52
CCN1CCC(c2cc(-c3ccc(NC(=O)c4ccco4)cc3)sc2C(=O)O)=C(C2CCC(C)CC2)C1 (stereo not shown) [Example 054, 3-[1-Ethyl-5-(4-methyl-cyclohexyl)-1,2,3,6-tetrahydro-pyridin-4-yl]-5-{4-[(furan-2-carbonyl)-amino]-phenyl}-thiophene-2-carboxylic acid]	> 5.52
CCN1CCC(c2cc(-c3ccc(NC(=O)c4cc[nH]n4)cc3)sc2C(=O)O)=C(C2CCC(C)CC2)C1 (stereo not shown) [Example 055, 3-[1-Ethyl-5-(4-methyl-cyclohexyl)-1,2,3,6-tetrahydro-pyridin-4-yl]-5-{4-[(1H-pyrazole-3-carbonyl)-amino]-phenyl}-thiophene-2-carboxylic acid]	> 5.52
CCN1CCC(c2cc(-c3ccc(NC(=O)c4cn[nH]c4)cc3)sc2C(=O)O)=C(C2CCC(C)CC2)C1 (stereo not shown) [Example 056, 3-[1-Ethyl-5-(4-methyl-cyclohexyl)-1,2,3,6-tetrahydro-pyridin-4-yl]-5-{4-[(1H-pyrazole-4-carbonyl)-amino]-phenyl}-thiophene-2-carboxylic acid]	5.00 to 5.52
CCN1CCC(c2cc(-c3ccc(NC(=O)c4cn(C)cn4)cc3)sc2C(=O)O)=C(C2CCC(C)CC2)C1 (stereo not shown) [Example 057, 3-[1-Ethyl-5-(4-methyl-cyclohexyl)-1,2,3,6-tetrahydro-pyridin-4-yl]-5-{4-[(1-methyl-1H-imidazole-4-carbonyl)-amino]-phenyl}-thiophene-2-carboxylic acid]	> 5.52
CCN1CCC(c2cc(-c3ccc(NC(=O)C4CCCO4)cc3)sc2C(=O)O)=C(C2CCC(C)CC2)C1 (stereo not shown) [Example 058, 3-[1-Ethyl-5-(4-methyl-cyclohexyl)-1,2,3,6-tetrahydro-pyridin-4-yl]-5-{4-[(tetrahydro-furan-2-carbonyl)-amino]-phenyl}-thiophene-2-carboxylic acid]	> 5.52
CC1CCC(C2=C(c3cc(-c4ccc(NC(=O)c5cscn5)c(F)c4)sc3C(=O)O)CCN(C)C2)CC1 (stereo not shown) [Example 059, 5-{3-Fluoro-4-[(thiazole-4-carbonyl)-amino]-phenyl}-3-[1-methyl-5-(4-methyl-cyclohexyl)-1,2,3,6-tetrahydro-pyridin-4-yl]-thiophene-2-carboxylic acid]	> 5.52
CC1CCC(C2=C(c3cc(-c4ccc(NC(=O)c5cscn5)cc4F)sc3C(=O)O)CCN(C)C2)CC1 (stereo not shown) [Example 060, 5-{2-Fluoro-4-[(thiazole-4-carbonyl)-amino]-phenyl}-3-[1-methyl-5-(4-methyl-cyclohexyl)-1,2,3,6-tetrahydro-pyridin-4-yl]-thiophene-2-carboxylic acid]	> 5.52
CCN1CCC(c2cc(-c3ccc(NCc4cscn4)cc3)sc2C(=O)O)=C(C2CCC(C)CC2)C1 (stereo not shown) [Example 061, 3-[1-Ethyl-5-(4-methyl-cyclohexyl)-1,2,3,6-tetrahydro-pyridin-4-yl]-5-{4-[(thiazol-4-ylmethyl)-amino]-phenyl}-thiophene-2-carboxylic acid]	< 5.00
CCN1CCC(c2cc(-c3ccc(C(=O)Nc4ccccn4)cc3)sc2C(=O)O)=C(C2CCC(C)CC2)C1 (stereo not shown) [Example 062, 3-[1-Ethyl-5-(4-methyl-cyclohexyl)-1,2,3,6-tetrahydro-pyridin-4-yl]-5-[4-(pyridin-2-ylcarbamoyl)-phenyl]-thiophene-2-carboxylic acid]	> 5.52
CN1CCC(c2cc(-c3ccccc3)sc2C(=O)O)=C(CCC2CCCC2)C1 [Example 063, 3-[5-(2-Cyclopentyl-ethyl)-1-methyl-1,2,3,6-tetrahydro-pyridin-4-yl]-5-phenyl-thiophene-2-carboxylic acid]	< 5.00
CN1CCC(c2cc(-c3ccccc3)sc2C(=O)O)=C(C2CCC(C(F)(F)F)CC2)C1 (stereo not shown) [Example 064, 3-[1-Methyl-5-(4-trifluoromethyl-cyclohexyl)-1,2,3,6-tetrahydro-pyridin-4-yl]-5-phenyl-thiophene-2-carboxylic acid]	< 5.00
CC1CCC(C2=C(c3cc(C#CC(C)(C)C)sc3C(=O)O)CN(CC3CCOCC3)CC2)CC1 (stereo not shown) [Example 065, 5-(3,3-Dimethyl-but-1-ynyl)-3-[4-(4-methyl-cyclohexyl)-1-(tetrahydro-pyran-4-ylmethyl)-1,2,5,6-tetrahydro-pyridin-3-yl]-thiophene-2-carboxylic acid]	> 5.52
CCN1CCC(c2cc(-c3ccc(NC(=O)c4nccs4)cc3)sc2C(=O)O)=C(C2CCC(C)CC2)C1 (stereo not shown) [Example 066, 3-[1-Ethyl-5-(4-methyl-cyclohexyl)-1,2,3,6-tetrahydro-pyridin-4-yl]-5-{4-[(thiazole-2-carbonyl)-amino]-phenyl}-thiophene-2-carboxylic acid]	> 5.52
CC1CCC(C2=C(c3cc(-c4ccc(N(C)C(=O)c5cscn5)cc4)sc3C(=O)O)CCN(C)C2)CC1 (stereo not shown) [Example 067, 3-[1-Methyl-5-(4-methyl-cyclohexyl)-1,2,3,6-tetrahydro-pyridin-4-yl]-5-{4-[methyl-(thiazole-4-carbonyl)-amino]-phenyl}-thiophene-2-carboxylic acid]	5.00 to 5.52
CC1CC=C(C2=C(c3cc(C#CC(C)(C)C)sc3C(=O)O)CCN(C)C2)CC1 (stereo not shown) [Example 068, 5-(3,3-Dimethyl-but-1-ynyl)-3-[1-methyl-5-(4-methyl-cyclohex-1-enyl)-1,2,3,6-tetrahydro-pyridin-4-yl]-thiophene-2-carboxylic acid]	> 5.52
CC1CC=C(C2=C(c3cc(-c4ccc(NC(=O)c5nccs5)cc4)sc3C(=O)O)CCN(C)C2)CC1 (stereo not shown) [Example 069, 3-[1-Methyl-5-(4-methyl-cyclohex-1-enyl)-1,2,3,6-tetrahydro-pyridin-4-yl]-5-{4-[(thiazole-2-carbonyl)-amino]-phenyl}-thiophene-2-carboxylic acid]	> 5.52
CC1CC=C(C2=C(c3cc(-c4ccc(-c5cc6ncccn6n5)cc4)sc3C(=O)O)CCN(C)C2)CC1 (stereo not shown) [Example 070, 3-[1-Methyl-5-(4-methyl-cyclohex-1-enyl)-1,2,3,6-tetrahydro-pyridin-4-yl]-5-(4-pyrazolo[1,5-a]pyrimidin-2-yl-phenyl)-thiophene-2-carboxylic acid]	> 5.52
CC(=O)N1CCC(c2cc(-c3ccccc3)sc2C(=O)O)=C(C2CCC(C)CC2)C1 (stereo not shown) [Example 071, 3-[1-Acetyl-5-(4-methyl-cyclohexyl)-1,2,3,6-tetrahydro-pyridin-4-yl]-5-phenyl-thiophene-2-carboxylic acid]	> 5.52
CC1CCC(C2=C(c3cc(-c4ccccc4)sc3C(=O)O)CCN(C(=O)c3ccccc3)C2)CC1 (stereo not shown) [Example 072, 3-[1-Benzoyl-5-(4-methyl-cyclohexyl)-1,2,3,6-tetrahydro-pyridin-4-yl]-5-phenyl-thiophene-2-carboxylic acid]	< 5.00
CC1CCC(C2=C(c3cc(-c4ccccc4)sc3C(=O)O)CCN(C(=O)OCc3ccccc3)C2)CC1 (stereo not shown) [Example 073]	< 5.00
COC(=O)N1CCC(c2cc(-c3ccccc3)sc2C(=O)O)=C(C2CCC(C)CC2)C1 (stereo not shown) [Example 074, 4-(2-Carboxy-5-phenyl-thiophen-3-yl)-5-(4-methyl-cyclohexyl)-3,6-dihydro-2H-pyridine-1-carboxylic acid methyl ester]	5.00 to 5.52
CC1CCC(C2=C(c3cc(-c4ccccc4)sc3C(=O)O)CCN(C(=O)CCc3ccccc3)C2)CC1 (stereo not shown) [Example 076, 3-[5-(4-Methyl-cyclohexyl)-1-(3-phenyl-propanoyl)-1,2,3,6-tetrahydropyridin-4-yl]-5-phenyl-thiophene-2-carboxylic acid]	< 5.00
CCCC(=O)N1CCC(c2cc(-c3ccccc3)sc2C(=O)O)=C(C2CCC(C)CC2)C1 (stereo not shown) [Example 077, 3-[1-Butyryl-5-(4-methyl-cyclohexyl)-1,2,3,6-tetrahydro-pyridin-4-yl]-5-phenyl-thiophene-2-carboxylic acid]	5.00 to 5.52
CC1CCC(C2=C(c3cc(-c4ccccc4)sc3C(=O)O)CCN(CCc3ccccc3)C2)CC1 (stereo not shown) [Example 078, 3-[5-(4-Methyl-cyclohexyl)-1-phenethyl-1,2,3,6-tetrahydro-pyridin-4-yl]-5-phenyl-thiophene-2-carboxylic acid]	< 5.00
